Results published in patent publication US6852707B1, “Remedies for hyperammonemia” (Suntory Limited, priority 1998, dated 2005).

How the values were obtained:
[1] = use against hyperammonemia; cited from earlier work
[2] = gastric acid, digestive enzymes (Okazaki et al. 1991, 1992); cited from earlier work
[3] = tested on: rats feeding on high-protein diet; experiment: Effects of xylobiose on rats feeding on high-protein diet (Example 2); type: in vivo, rat
Method: SD Male rats in a growth stage (15 heads) were fed on a high-protein feed (containing 50% casein) and divided in three groups; the first group consisting of 5 rats were administered 0.5% xylobiose; the second group also consisting of 5 rats were administered 1.0% xylobiose; the third was a control group consisting of 5 rats which were administered distilled water; the animals were let to drink these liquids ad libitum for 3 weeks. Throughout the test period, there were no effects on the amounts of feed and water taken by the rats and the increase in their body weight. The cumulative uptake was 4.7±0.2 g for 0.5% xylobiose and 7.5±0.6 g for 1.0% xylobiose; the daily uptake by the two groups was 0.24 g and 0.37 g, respectively.
At the end of the test, blood was sampled from the rats and the blood ammonia level was measured.

In the case of NC[C@@H]1O[C@H](O[C@H]2[C@@H](O)[C@H](O[C@@H]3[C@@H](O)[C@H](N)C[C@H](N)[C@H]3O[C@H]3O[C@H](CN)[C@@H](O)[C@H](O)[C@H]3N)O[C@@H]2CO)[C@H](N)[C@@H](O)[C@@H]1O [neomycin], the documented side effects [1] is listed as “renal disorder and deafness”.

For OC1OC[C@@H](O[C@@H]2OC[C@@H](O)[C@H](O)[C@H]2O)[C@H](O)[C@H]1O (some centres unmarked) [xylobiose], the “stability in the digestive tract” value [2] is listed as “can reach the large intestine without being decomposed with gastric acid or digestive enzymes”, the “effects on amounts of feed and water taken and increase in body weight” value ([3]; 0.5% and 1.0% xylobiose, throughout the 3-week test period) is listed as “no effects” and the “blood ammonia level versus control group” value ([3]; 0.5% xylobiose in drinking water ad libitum for 3 weeks) is listed as “lower than the value for the control group”. The “blood ammonia level versus control group” value ([3]; 1.0% xylobiose in drinking water ad libitum for 3 weeks, p<0.05) was “significantly low”.
